Test results as given in PubChem BioAssay (NCI).
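Dose response: 5 concentrations. Exposure: 48 h. Format: 96-well plates. Endpoint: linear interpolation; highest concentration if not reached. GI50 is the concentration that inhibits growth by half. At the TGI there is no net growth.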

Tests used:
Test in all cases: NCI anticancer screen, dose series, 48 h; in the data active = GI50 below about 0.43 µM; inactive = the rest
HT29 colon = test system: HT29 colon
OVCAR-8 ovarian = test system: OVCAR-8 ovarian
UACC-257 melanoma = test system: UACC-257 melanoma
EKVX NSCLC = test system: EKVX NSCLC
HCT-116 colon = test system: HCT-116 colon
A549 NSCLC = test system: A549 NSCLC
OVCAR-4 ovarian = test system: OVCAR-4 ovarian
UO-31 renal = test system: UO-31 renal
COLO 205 colon = test system: COLO 205 colon
MDA-MB-468 breast = test system: MDA-MB-468 breast
NCI-H226 lung = test system: NCI-H226 lung
SNB-19 CNS = test system: SNB-19 CNS
SK-MEL-2 melanoma = test system: SK-MEL-2 melanoma
SF-539 CNS = test system: SF-539 CNS
ACHN renal = test system: ACHN renal
KM12 colon = test system: KM12 colon
MCF7 breast = test system: MCF7 breast
NCI-H23 lung = test system: NCI-H23 lung
MDA-MB-435 = test system: MDA-MB-435
K-562 leukemia = test system: K-562 leukemia
SW-620 colon = test system: SW-620 colon
SF-268 CNS = test system: SF-268 CNS
MOLT-4 leukemia = test system: MOLT-4 leukemia
DU-145 prostate = test system: DU-145 prostate
NCI-H460 lung = test system: NCI-H460 lung
CCRF-CEM leukemia = test system: CCRF-CEM leukemia
SK-MEL-28 melanoma = test system: SK-MEL-28 melanoma
RXF 393 renal = test system: RXF 393 renal
LOX IMVI melanoma = test system: LOX IMVI melanoma
HCT-15 colon = test system: HCT-15 colon
CAKI-1 renal = test system: CAKI-1 renal
SNB-75 CNS = test system: SNB-75 CNS
786-0 renal = test system: 786-0 renal
OVCAR-3 ovarian = test system: OVCAR-3 ovarian
MDA-MB-231 breast = test system: MDA-MB-231 breast
OVCAR-5 ovarian = test system: OVCAR-5 ovarian
BT-549 breast = test system: BT-549 breast
UACC-62 melanoma = test system: UACC-62 melanoma
HL-60(TB) leukemia = test system: HL-60(TB) leukemia
PC-3 prostate = test system: PC-3 prostate
HOP-92 NSCLC = test system: HOP-92 NSCLC
HOP-62 NSCLC = test system: HOP-62 NSCLC
HCC-2998 colon = test system: HCC-2998 colon
SN12C renal = test system: SN12C renal
TK-10 renal = test system: TK-10 renal
SK-OV-3 ovarian = test system: SK-OV-3 ovarian
NCI/ADR-RES ovarian = test system: NCI/ADR-RES ovarian
MALME-3M melanoma = test system: MALME-3M melanoma
U251 CNS = test system: U251 CNS
T-47D breast = test system: T-47D breast
M14 melanoma = test system: M14 melanoma
IGROV1 ovarian = test system: IGROV1 ovarian
SK-MEL-5 melanoma = test system: SK-MEL-5 melanoma
SF-295 CNS = test system: SF-295 CNS
A498 renal = test system: A498 renal
RPMI-8226 leukemia = test system: RPMI-8226 leukemia
HS 578T breast = test system: HS 578T breast
NCI-H522 lung = test system: NCI-H522 lung

C=C1CCC2C3(C)COC(c4ccccc4)OC3CCC2(C)C1CC(Sc1ccccc1)C1=CCOC1=O (stereo unspecified)
14.3 µM: TGI (LOX IMVI melanoma)
8.71 µM: TGI (CCRF-CEM leukemia)
26.4 µM: TGI (MDA-MB-468 breast) | TGI (NCI/ADR-RES ovarian)
13.1 µM: TGI (OVCAR-3 ovarian)
20.8 µM: TGI (SF-539 CNS)
21.9 µM: TGI (SK-MEL-2 melanoma)
45 µM: TGI (HCT-15 colon)
15.5 µM: TGI (HCT-116 colon)
35.4 µM: TGI (MDA-MB-435)
7.84 µM: TGI (RPMI-8226 leukemia)
8.66 µM: TGI (HL-60(TB) leukemia)
inactive: GI50 (HT29 colon) 5.8 µM | GI50 (OVCAR-8 ovarian) 4.98 µM | GI50 (UACC-257 melanoma) 33.6 µM | GI50 (EKVX NSCLC) 5.77 µM | GI50 (HCT-116 colon) 3.52 µM | GI50 (A549 NSCLC) 13.1 µM | GI50 (OVCAR-4 ovarian) 25.5 µM | GI50 (UO-31 renal) 6.36 µM | GI50 (COLO 205 colon) 20.3 µM | GI50 (MDA-MB-468 breast) 4.8 µM | GI50 (NCI-H226 lung) 6.32 µM | GI50 (SNB-19 CNS) 45.1 µM | GI50 (SK-MEL-2 melanoma) 6.22 µM | GI50 (SF-539 CNS) 6.82 µM | GI50 (ACHN renal) 12.7 µM | GI50 (KM12 colon) 11.7 µM | GI50 (MCF7 breast) 3.42 µM | GI50 (NCI-H23 lung) 25.7 µM | GI50 (MDA-MB-435) 7.09 µM | GI50 (K-562 leukemia) 3.88 µM | GI50 (SW-620 colon) 3.31 µM | GI50 (SF-268 CNS) 48.6 µM | GI50 (MOLT-4 leukemia) 2970 nM | GI50 (DU-145 prostate) 18.5 µM | GI50 (NCI-H460 lung) 17.4 µM | GI50 (CCRF-CEM leukemia) 2350 nM | GI50 (SK-MEL-28 melanoma) 27.2 µM | GI50 (RXF 393 renal) 6.61 µM | GI50 (LOX IMVI melanoma) 3.43 µM | GI50 (HCT-15 colon) 5.12 µM | GI50 (CAKI-1 renal) 18.6 µM | GI50 (SNB-75 CNS) 1710 nM | GI50 (786-0 renal) 14.4 µM | GI50 (OVCAR-3 ovarian) 3.66 µM | GI50 (MDA-MB-231 breast) 13.7 µM | GI50 (OVCAR-5 ovarian) 25.9 µM | GI50 (BT-549 breast) 2170 nM | GI50 (UACC-62 melanoma) 10.3 µM | GI50 (HL-60(TB) leukemia) 2660 nM | GI50 (PC-3 prostate) 5.88 µM | GI50 (HOP-92 NSCLC) 6.54 µM | GI50 (HOP-62 NSCLC) 72.2 µM | GI50 (HCC-2998 colon) 22.3 µM | GI50 (SN12C renal) 10.4 µM | GI50 (TK-10 renal) 76.1 µM | GI50 (SK-OV-3 ovarian) > 100 µM | GI50 (NCI/ADR-RES ovarian) 4.78 µM | GI50 (MALME-3M melanoma) 27.9 µM | GI50 (U251 CNS) 9.9 µM | GI50 (T-47D breast) 5.2 µM | GI50 (M14 melanoma) 9.87 µM | GI50 (IGROV1 ovarian) 17.3 µM | GI50 (SK-MEL-5 melanoma) 10.9 µM | GI50 (SF-295 CNS) 21.3 µM | GI50 (A498 renal) > 100 µM | GI50 (RPMI-8226 leukemia) 2590 nM | GI50 (HS 578T breast) 37 µM | GI50 (NCI-H522 lung) 10.4 µM
39.7 µM: TGI (HT29 colon)
42.4 µM: TGI (NCI-H226 lung)
> 100 µM: TGI (UACC-257 melanoma) | TGI (A549 NSCLC) | TGI (OVCAR-4 ovarian) | TGI (UO-31 renal) | TGI (SNB-19 CNS) | TGI (ACHN renal) | TGI (KM12 colon) | TGI (MCF7 breast) | TGI (NCI-H23 lung) | TGI (K-562 leukemia) | TGI (SW-620 colon) | TGI (SF-268 CNS) | TGI (MOLT-4 leukemia) | TGI (DU-145 prostate) | TGI (NCI-H460 lung) | TGI (SK-MEL-28 melanoma) | TGI (CAKI-1 renal) | TGI (SNB-75 CNS) | TGI (OVCAR-5 ovarian) | TGI (PC-3 prostate) | TGI (HOP-62 NSCLC) | TGI (HCC-2998 colon) | TGI (SN12C renal) | TGI (TK-10 renal) | TGI (SK-OV-3 ovarian) | TGI (MALME-3M melanoma) | TGI (T-47D breast) | TGI (IGROV1 ovarian) | TGI (SF-295 CNS) | TGI (A498 renal) | TGI (HS 578T breast)
29 µM: TGI (OVCAR-8 ovarian)
27.7 µM: TGI (UACC-62 melanoma)
9.12 µM: TGI (BT-549 breast)
22.8 µM: TGI (NCI-H522 lung)
26.5 µM: TGI (U251 CNS)
95.5 µM: TGI (EKVX NSCLC)
49 µM: TGI (MDA-MB-231 breast)
41.9 µM: TGI (HOP-92 NSCLC)
40.5 µM: TGI (786-0 renal)
43 µM: TGI (RXF 393 renal)
35 µM: TGI (M14 melanoma)
23.4 µM: TGI (SK-MEL-5 melanoma)
46.8 µM: TGI (COLO 205 colon)
